From PubChem BioAssay AID1963867 (Molecular Pharmacology Branch, DTP, NCI, 2024)

System: KRAS-mutant PDC tumor spheroid with HUVEC/MSC, viability
Assay: Anticancer human tumor 327498-153-R-J2-PDC patient-derived uterine carcinosarcoma cell line growth inhibition [KRAS2]
Conditions: for IC50: curve of first compound; for viability, T/C: stronger effect = lower value
Source text: Multicellular complex tumor spheroid response to RAS pathway inhibitors in combination with a targeted agents in patient-derived cell lines with oncogenic KRAS variants from multiple cancer types
A high-throughput screen of multi-cell type tumor spheroids was designed to identify active combinations of targeted small molecules and KRAS pathway inhibitors. Complex spheroids include a stromal component modeled by human endothelial cells (HUVEC) and fibroblasts modeled by human mesenchymal stem cells (MSCs). The concentration ranges selected for each drug and investigational agent were based upon clinically achievable concentrations if the clinical Cmax of the agent was known.
Compounds. The drugs and investigational agents: BI-3406 (NSC825286), BAY-293 (NSC824723), batoprotafib (TNO155; NSC825523), sotorasib (AMG 510; NSC818433), MRTX1257 (NSC819558), elimusertib (BAY 1895344; NSC800525), molibresib (GSK525762; NSC774829), temuterkib (LY3214996; NSC803410), venetoclax (NSC766270), alisertib (NSC759677), olaparib (NSC753686), talazoparib (NSC767125), erdafitinib (NSC781556), ipatasertib (NSC767898), cabozantinib (NSC761068), nintedanib (NSC756659), abemaciclib (NSC768073), docetaxel (NSC628503), trametinib (NSC758246), and sapanisertib (NSC764658) were obtained from the National Cancer Institute (NCI) Developmental Therapeutics Program Chemical Repository. The FDA-approved anticancer drug set is available from the Developmental Therapeutics Program. […] The stock solutions were prepared in dimethyl sulfoxide (DMSO, Sigma-Aldrich, St. Louis, MO, cat. D2650) at 800-fold the tested concentration and stored at -70 degrees C prior to their use. All drugs and investigational agents were tested over a range starting from a high concentration at or near the clinical Cmax and decreasing in half-log increments. If the clinical Cmax for an agent had not been determined, the highest concentration tested was 10 microM.
Cell Culture. All cells were maintained in an incubator at 37 degrees C and 5% CO2 with 95% humidity. The PDC lines were cultured according to standard operating procedures established by the NCI PDMR (https://pdmr.cancer.gov/sops/default.htm). Briefly, all PDCs were thawed and cultured in Matrigel-coated flasks prepared with a working solution of 1X Ham's F-12 nutrient mix, without supplementation (Invitrogen, Waltham, MA, cat. 11765054), 100 U/mL penicillin-streptomycin (Invitrogen, cat. 15140122), and 2.5% Matrigel (Corning Inc., Corning, NY, cat. 354248) for the first three passages. All PDCs were cultured in complete DMEM/F-12 media containing advanced DMEM/F-12 (Invitrogen, cat. 12634028), 4.9% defined fetal bovine serum, heat inactivated (HyClone Laboratories Inc., Logan, UT, cat. SH30070.03HI), 389 ng/mL hydrocortisone (Sigma-Aldrich, cat. H4001), 9.7 ng/mL human EGF recombinant protein (Invitrogen, cat. PHG0313), 23.4 microg/mL adenine (Sigma-Aldrich, cat. A2786), 97.3 U/mL penicillin-streptomycin (Invitrogen, cat. 15140122), 1.9 mM L-glutamine (Invitrogen, cat. 25030081), and 9.7 microM Y-27632 dihydrochloride (Tocris Bioscience, Bristol, United Kingdom, cat. 1254). The PDCs were cultured in complete DMEM/F12 media without 9.7 microM Y-27632 dihydrochloride for at least two passages prior to the screen. The established cell line HOP-62 was cultured in RPMI 1640 medium, HEPES (Invitrogen, cat. 22400105) with 10% defined fetal bovine serum (HyClone Laboratories Inc., cat. SH30070.03) and 2 mM L-glutamine (Invitrogen, cat. 25030081). The pooled donor HUVEC were cultured in endothelial cell growth medium 2 (PromoCell, Heidelberg, Germany, cat. C-22011) and the hMSC were cultured in mesenchymal stem cell growth medium 2 (PromoCell, cat. C-28009). For all experiments, HUVEC and hMSC were used at passages </=5, while the malignant cell lines were used at passages </=15. […]

[1] = second compound 0.1 µM, first compound 0.0316 µM
[2] = second compound 0.316 µM, first compound 0.0316 µM
[3] = second compound 1 µM, first compound 0.0316 µM
[4] = second compound 3.16 µM, first compound 0.0316 µM
[5] = second compound 10 µM, first compound 0.0316 µM
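Further: spheroids exposed to agents for seven days before reading.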
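Wherever viability, T/C is given: 100% = DMSO vehicle wells so lower means fewer viable cells.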

## CC(=O)Nc1cccc(-n2c(=O)n(C3CC3)c(=O)c3c(Nc4ccc(I)cc4F)n(C)c(=O)c(C)c32)c1 + C=CC(=O)N1CCN(c2nc(=O)n(-c3c(C)ccnc3C(C)C)c3nc(-c4c(O)cccc4F)c(F)cc23)C(C)C1
Second compound 0.1 µM
  IC50: 6.05 nM
Second compound 0.316 µM
  IC50: 3.57 nM
Second compound 1 µM
  IC50: 4.92 nM
Second compound 3.16 µM
  IC50: 2.38 nM
Second compound 10 µM
  IC50: < 0.1 nM
Second compound 0.1 µM, first compound 0.0001 µM
  viability, T/C: 70.5%
Second compound 0.1 µM, first compound 0.000316 µM
  viability, T/C: 60.1%
Second compound 0.1 µM, first compound 0.001 µM
  viability, T/C: 61.5%
Second compound 0.1 µM, first compound 0.00316 µM
  viability, T/C: 57.9%
Second compound 0.1 µM, first compound 0.01 µM
  viability, T/C: 45.2%
[1]
  viability, T/C: 16.2%
Second compound 0.316 µM, first compound 0.0001 µM
  viability, T/C: 65.7%
Second compound 0.316 µM, first compound 0.000316 µM
  viability, T/C: 67.2%
Second compound 0.316 µM, first compound 0.001 µM
  viability, T/C: 57.6%
Second compound 0.316 µM, first compound 0.00316 µM
  viability, T/C: 51.5%
Second compound 0.316 µM, first compound 0.01 µM
  viability, T/C: 37.7%
[2]
  viability, T/C: 14.5%
Second compound 1 µM, first compound 0.0001 µM
  viability, T/C: 60%
Second compound 1 µM, first compound 0.000316 µM
  viability, T/C: 63%
Second compound 1 µM, first compound 0.001 µM
  viability, T/C: 56.3%
Second compound 1 µM, first compound 0.00316 µM
  viability, T/C: 53.1%
Second compound 1 µM, first compound 0.01 µM
  viability, T/C: 44.4%
[3]
  viability, T/C: 13.3%
Second compound 3.16 µM, first compound 0.0001 µM
  viability, T/C: 60.7%
Second compound 3.16 µM, first compound 0.000316 µM
  viability, T/C: 57.2%
Second compound 3.16 µM, first compound 0.001 µM
  viability, T/C: 54.5%
Second compound 3.16 µM, first compound 0.00316 µM
  viability, T/C: 49.4%
Second compound 3.16 µM, first compound 0.01 µM
  viability, T/C: 31.9%
[4]
  viability, T/C: 15.3%
Second compound 10 µM, first compound 0.0001 µM
  viability, T/C: 46.5%
Second compound 10 µM, first compound 0.000316 µM
  viability, T/C: 47.7%
Second compound 10 µM, first compound 0.001 µM
  viability, T/C: 45.1%
Second compound 10 µM, first compound 0.00316 µM
  viability, T/C: 41.2%
Second compound 10 µM, first compound 0.01 µM
  viability, T/C: 24.1%
[5]
  viability, T/C: 13.4%

## COc1cc(Nc2ncc3c(n2)-c2ccc(Cl)cc2C(c2c(F)cccc2OC)=NC3)ccc1C(=O)O + C=CC(=O)N1CCN(c2nc(=O)n(-c3c(C)ccnc3C(C)C)c3nc(-c4c(O)cccc4F)c(F)cc23)C(C)C1
Second compound 0.1 µM
  IC50: < 31.6 nM
Second compound 0.316 µM
  IC50: < 31.6 nM
Second compound 1 µM
  IC50: < 31.6 nM
Second compound 3.16 µM
  IC50: < 31.6 nM
Second compound 10 µM
  IC50: < 31.6 nM
[1]
  viability, T/C: 12.1%
Second compound 0.1 µM, first compound 0.1 µM
  viability, T/C: 9.76%
Second compound 0.1 µM, first compound 0.316 µM
  viability, T/C: 10.6%
Second compound 0.1 µM, first compound 1 µM
  viability, T/C: 12.4%
Second compound 0.1 µM, first compound 3.16 µM
  viability, T/C: 12.6%
Second compound 0.1 µM, first compound 10 µM
  viability, T/C: 9.6%
[2]
  viability, T/C: 10.1%
Second compound 0.316 µM, first compound 0.1 µM
  viability, T/C: 11.5%
Second compound 0.316 µM, first compound 0.316 µM
  viability, T/C: 11.1%
Second compound 0.316 µM, first compound 1 µM
  viability, T/C: 9.91%
Second compound 0.316 µM, first compound 3.16 µM
  viability, T/C: 13.6%
Second compound 0.316 µM, first compound 10 µM
  viability, T/C: 10.8%
[3]
  viability, T/C: 10.6%
Second compound 1 µM, first compound 0.1 µM
  viability, T/C: 12%
Second compound 1 µM, first compound 0.316 µM
  viability, T/C: 10.6%
Second compound 1 µM, first compound 1 µM
  viability, T/C: 10.7%
Second compound 1 µM, first compound 3.16 µM
  viability, T/C: 12.5%
Second compound 1 µM, first compound 10 µM
  viability, T/C: 11.3%
[4]
  viability, T/C: 9.6%
Second compound 3.16 µM, first compound 0.1 µM
  viability, T/C: 11.2%
Second compound 3.16 µM, first compound 0.316 µM
  viability, T/C: 10.2%
Second compound 3.16 µM, first compound 1 µM
  viability, T/C: 11.9%
Second compound 3.16 µM, first compound 3.16 µM
  viability, T/C: 12.6%
Second compound 3.16 µM, first compound 10 µM
  viability, T/C: 10.9%
[5]
  viability, T/C: 9.5%
Second compound 10 µM, first compound 0.1 µM
  viability, T/C: 13.1%
Second compound 10 µM, first compound 0.316 µM
  viability, T/C: 12.6%
Second compound 10 µM, first compound 1 µM
  viability, T/C: 12.4%
Second compound 10 µM, first compound 3.16 µM
  viability, T/C: 15.2%
Second compound 10 µM, first compound 10 µM
  viability, T/C: 11.9%
